Results from US20170260226A1, “3-NITROGEN OR SULPHUR SUBSTITUTED OESTRA-1,3,5(10),16-TETRAENE AKR1C3 INHIBITORS” (BAYER PHARMA AKTIENGESELLSCHAFT, priority 2014, published 2017).

Columns and labels:
AKR1C3 [1] = target: T1, AKR1C3 (Homo sapiens, UniProt P42330); test: AKR1C3 inhibition in a cell-based system (HEK293 cells transfected with AKR1C3 expression plasmid, coumberon substrate); parameters: expressed in transfected cells; host or cells: HEK293 cells (ATCC); conditions: mean values; HEK293 cells transfected with AKR1C3, coumberon 6×10^−6M, 3 h; read-out: Cellular AKR1C3 inhibition IC50
T1 sequence (P42330 1-323): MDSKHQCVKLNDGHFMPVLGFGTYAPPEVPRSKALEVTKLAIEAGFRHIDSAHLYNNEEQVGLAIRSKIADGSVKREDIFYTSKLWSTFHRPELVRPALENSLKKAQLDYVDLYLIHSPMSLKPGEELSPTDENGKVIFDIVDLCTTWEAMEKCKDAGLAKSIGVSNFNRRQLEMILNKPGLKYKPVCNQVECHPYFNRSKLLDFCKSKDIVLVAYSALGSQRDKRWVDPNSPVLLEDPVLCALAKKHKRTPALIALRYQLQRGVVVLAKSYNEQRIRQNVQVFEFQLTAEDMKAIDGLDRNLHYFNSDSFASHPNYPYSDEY
Description: The inhibition of AKR1C3 by the substances described in this invention was measured in a cell-based assay using coumberon as the substrate for AKR1C3 (Halim, M., Yee, D., J., and Sames, D., J. (2008). Am Chem Soc, 130, 14123-14128 and Yee, D., J., Balsanek, V., Bauman, D., R., Penning, T., M., and Sames, D. (2006), Proc Natl Acad Sci USA 103, 13304-13309) (cf. Example 48).
The cell system used was HEK293 cells (ATCC, USA) (DMEM/F12, 10% FCS, 2 mM L-Glutamine, PSG). The cells were transfected with an AKR1C3 expression plasmid (pCMV6-AC-AKR1C3, GenBank Accession No. NM 003739.4), harvested after 24 hours and subsequently frozen. For assays, the frozen cells were thawed in assay medium (DMEM/F12 w/o phenolred, 0.005% Tween, 10% FCS, 2 mM L-Glutamine, PSG). Cells were seeded at 2500 cells/well into 384-well low volume or 1536-well plates (Greiner Bio-One, Frickenhausen, Germany) that contained 40-50 nl of a 100 fold concentrated compound solution in DMSO. After incubation at room temperature for 15 minutes, coumberon in PBS was added to a final concentration of 6×10^−6M. Following a 3 h incubation at room temperature, the reaction was stopped by lysing the cells with 0.4% Triton X-100. Coumberol fluorescence intensity was measured at 520 nm (excitation 380 nm) with a suitable measuring instrument (Pherastar, BMG). […] The data were normalized (transfected cells+coumberon=0% inhibition; no cells+coumberone=100% inhibition). Substances were usually tested at 11 different concentrations on the same microtiter plate in a range between 96.8 pM to 20 μM (20 μM, 5.9 μM, 1.7 μM, 0.5 μM, 0.15 μM, 44 nM, 12.9 nM, 3.8 nM, 1.1 nM, 0.3 nM and 96.8 pM). The dilutions were carried out on a 100 fold concentrated solution by serial dilution in duplicates. From the obtained data IC50 values were calculated by a 4-parameter fit.

AKR1C3 [2] = target: T1, AKR1C3; test: AKR1C3 enzyme inhibition assay (coumberone to coumberol fluorescence); assay type: biochemical; parameters: GST (cleaved yes); made in house; host or cells: E. coli; conditions: mean values; 10 μM NADPH, 0.3 μM coumberone, 3 h at room temperature
Description: The AKR1C3-inhibitory action of the substances of this invention was measured in the AKR1C3 assay described in the paragraphs which follow.
Essentially, the enzyme activity is measured by quantifying the coumberol formed from coumberone (Halim, M., Yee, D., J., and Sames, D., J. A., M. (2008). Chem Soc 130, 14123-14128 and Yee, D., J., Balsanek, V., Bauman, D., R., Penning, T., M., and Sames, D. (2006). Proc Natl Acad Sci USA, 103, 13304-13309). In this assay, the increase in the highly fluorescent coumberol can be determined by NADPH (nicotinamide adenine dinucleotide phosphate)-dependent reduction of the nonfluorescent coumberone by AKR1C3.
The enzyme used was recombinant human AKR1C3 (aldo-keto reductase family 1 member C3) (GenBank Accession No. NM_003739). This was expressed as the GST (glutathione S-transferase) fusion protein in E. coli and purified by means of glutathione-Sepharose affinity chromatography. The GST was removed by thrombin digestion with subsequent size exclusion chromatography (Dufort, I., Rheault, P., Huang, X., F., Soucy, P., and Luu-The, V. (1999). Endocrinology,140, 568-574).
For the assay, 40-50 nl of a 100-fold concentrated solution of the test substance in DMSO were pipetted into a black low-volume 384-well microtitre plate (Greiner Bio-One, Frickenhausen, Germany), 2-2.5 μl of a solution of AKR1C3 in assay buffer [50 mM potassium phosphate buffer pH 7, 1 mM DTT, 0.0022% (w/v) Pluronic F-127, 0.01% BSA (w/v) and protease inhibitor cocktail (complete, EDTA-free Protease Inhibitor Cocktail from Roche)] were added and the mixture was incubated for 20 min, in order to enable preliminary binding of the substances to the enzyme prior to the enzyme reaction. Then the enzyme reaction was started by adding 2-2.5 μl of a solution of NADPH and coumberone in assay buffer (final assay concentration was 10 μM NADPH and 0.3 μM coumberone) and the resulting mixture was incubated at room temperature for 3 h. Typical concentrations were depending on the linear range of the enzyme reaction during the reaction time about 1 nM. The reaction was stopped by adding 2 μl of a stop solution consisting of the AKR1C3 inhibitor EM-1404 to a final concentration of 1 μM. Subsequently, the fluorescence of coumberol was measured at 520 nm (excitation at 380 nm) with a suitable measuring instrument (Pherastar, BMG). […] The data were normalized (enzyme+coumberon substrate in assay buffer=0% inhibition; coumberone substrate only in assay buffer=100% inhibition). Substances were usually tested at 11 different concentrations on the same microtiter plate in a range between 96.8 pM to 20 μM (20 μM, 5.9 μM, 1.7 μM, 0.5 μM, 0.15 μM, 44 nM, 12.9 nM, 3.8 nM, 1.1 nM, 0.3 nM and 96.8 pM). The dilutions were carried out on a 100 fold concentrated solution by serial dilution in duplicates. From the obtained data IC50 values were calculated by a 4-parameter fit.

Row | SMILES | IC50 (AKR1C3 [1]) [nM] | IC50 (AKR1C3 [2]) [nM]
1 | COc1cncc(C2=CC[C@H]3[C@@H]4CCc5cc(S(=O)(=O)CCCC(=O)O)ccc5[C@H]4CC[C@]23C)c1 [Example 16, 4-{[17-(5-methoxypyridin-3-yl)estra-1,3,5(10),16-tetraen-3-yl]sulfonyl}butanoic acid] | 540 | 9.7
2 | C[C@]12CC[C@@H]3c4ccc(S(=O)(=O)CCCC(=O)O)cc4CC[C@H]3[C@@H]1CC=C2c1cncc(C(F)(F)F)c1 [Example 14, 4-({17-[5-(trifluoromethyl)pyridin-3-yl]estra-1(10),2,4,16-tetraen-3-yl}sulfonyl)butanoic acid] | 490 | 14.3
3 | C[C@]12CC[C@@H]3c4ccc(S(=O)(=O)CCCC(N)=O)cc4CC[C@H]3[C@@H]1CC=C2c1cncc(F)c1 [Example 20, 4-{[17-(5-fluoropyridin-3-yl)estra-1(10),2,4,16-tetraen-3-yl]sulfonyl}butanamide] | 30 | 3.2
4 | CC(=O)NS(=O)(=O)CCC(=O)Nc1ccc2c(c1)CC[C@@H]1[C@@H]2CC[C@]2(C)C(c3cncc(F)c3)=CC[C@@H]12 [Example 29, 3-(acetylsulfamoyl)-N-[17-(5-fluoropyridin-3-yl)estra-1(10),2,4,16-tetraen-3-yl]propanamide] | 5000 | 3.2
5 | CN(CCC(=O)O)S(=O)(=O)c1ccc2c(c1)CC[C@@H]1[C@@H]2CC[C@]2(C)C(c3cncnc3)=CC[C@@H]12 [Example 05, N-methyl-N-{[17-(pyrimidin-5-yl)estra-1(10),2,4,16-tetraen-3-yl]sulfonyl}-beta-alanine] | 2710 | 91.7
6 | CN(CCC(=O)O)S(=O)(=O)c1ccc2c(c1)CC[C@@H]1[C@@H]2CC[C@]2(C)C(c3cncc(F)c3)=CC[C@@H]12 [Example 02, N-{[17-(5-fluoropyridin-3-yl)estra-1(10),2,4,16-tetraen-3-yl]sulfonyl}-N-methyl-beta-alanine] | 380 | 3.5
7 | C[C@]12CC[C@@H]3c4ccc(S(=O)(=O)CCCC(=O)O)cc4CC[C@H]3[C@@H]1CC=C2c1cncc(Cl)c1 [Example 19, 4-{[17-(5-chloropyridin-3-yl)estra-1,3,5(10),16-tetraen-3-yl]sulfonyl}butanoic acid] | 150 | 1.7
8 | CN(CCCC(=O)O)c1ccc2c(c1)CC[C@@H]1[C@@H]2CC[C@]2(C)C(c3cncc(F)c3)=CC[C@@H]12 [Example 44, 4-{[17-(5-fluoropyridin-3-yl)estra-1(10),2,4,16-tetraen-3-yl](methyl)amino}butanoic acid] | 1120 | 18.5
9 | C[C@]12CC[C@@H]3c4ccc(S(=O)(=O)CCCC(=O)O)cc4CC[C@H]3[C@@H]1CC=C2c1cncc(F)c1 [Example 10, 4-{[17-(5-fluoropyridin-3-yl)estra-1(10),2,4,16-tetraen-3-yl]sulfonyl}butanoic acid] | 490 | 2.9
10 | CN(C(=O)CCC(=O)O)c1ccc2c(c1)CC[C@@H]1[C@@H]2CC[C@]2(C)C(c3cncc(F)c3)=CC[C@@H]12 [Example 35, 4-{[17-(5-fluoropyridin-3-yl)estra-1(10),2,4,16-tetraen-3-yl](methyl)amino}-4-oxobutanoic acid] | 210 | 3.2
11 | CC(=O)Nc1ccc2c(c1)CC[C@@H]1[C@@H]2CC[C@]2(C)C(c3cncc(F)c3)=CC[C@@H]12 [Example 40, N-[17-(5-fluoropyridin-3-yl)estra-1(10),2,4,16-tetraen-3-yl]acetamide] | 100 | 5.3

Continued, values first:

Row | IC50 (AKR1C3 [1]) [nM] | IC50 (AKR1C3 [2]) [nM] | SMILES
12 | 800 | 0.5 | Cc1cc(C2=CC[C@H]3[C@@H]4CCc5cc(S(=O)(=O)N(C)CCC(=O)O)ccc5[C@H]4CC[C@]23C)cnn1 [Example 07, N-methyl-N-{[17-(6-methylpyridazin-4-yl)estra-1(10),2,4,16-tetraen-3-yl]sulfonyl}-beta-alanine]
13 | 2170 | 11.8 | C[C@]12CC[C@@H]3c4ccc(NC(=O)CCc5nn[nH]n5)cc4CC[C@H]3[C@@H]1CC=C2c1cncc(F)c1 [Example 32, N-[17-(5-fluoropyridin-3-yl)estra-1(10),2,4,16-tetraen-3-yl]-3-(2H-tetrazol-5-yl)propanamide]
14 | 780 | 3.8 | C[C@]12CC[C@@H]3c4ccc(NC(=O)CCC(=O)O)cc4CC[C@H]3[C@@H]1CC=C2c1cncc(F)c1 [Example 23, 4-{[17-(5-fluoropyridin-3-yl)estra-1(10),2,4,16-tetraen-3-yl]amino}-4-oxobutanoic acid]
15 | 110 | 5 | C[C@]12CC[C@@H]3c4ccc(NC(=O)CCCO)cc4CC[C@H]3[C@@H]1CC=C2c1cncc(F)c1 [Example 27, N-[17-(5-fluoropyridin-3-yl)estra-1(10),2,4,16-tetraen-3-yl]-4-hydroxybutanamide]
16 | 50 | 7.7 | COC(=O)CCCS(=O)(=O)c1ccc2c(c1)CC[C@@H]1[C@@H]2CC[C@]2(C)C(c3cncc(F)c3)=CC[C@@H]12 [Example 09, methyl 4-{[17-(5-fluoropyridin-3-yl)estra-1(10),2,4,16-tetraen-3-yl]sulfonyl}butanoate]
17 | 860 | 4.9 | CN(c1ccc2c(c1)CC[C@@H]1[C@@H]2CC[C@]2(C)C(c3cncc(F)c3)=CC[C@@H]12)S(=O)(=O)CCC(=O)O [Example 38, 3-{[17-(5-fluoropyridin-3-yl)estra-1(10),2,4,16-tetraen-3-yl](methyl)sulfamoyl}propanoic acid]
